Laboratory results reported in ChEMBL document CHEMBL3301555, “MMV Malaria Box screening in pLDH viability assay against Plasmodium falciparum gametocytes”.

tested on: Plasmodium falciparum; test: MMV: Measure of pLDH activity as indication of parasite viability. Gametocytogenesis of 3D7 Plasmodium falciparum strain was induced in vitro and asexual parasites were depleted with N-acetylglucosamine. Gametocytes were treated with dihydroartemisinin, epoxomicin, methylene blue, primaquine, puromycin or chloroquine in 96-well plates and the pLDH activity was evaluated using a modified Makler protocol. Mosquito infectivity was measured by the standard membrane feeding assay.; format: functional; parameters: concentration or dose not given beside the values

Structure (SMILES)	Growth Inhibition [%]
COc1ccc2c(c1)C1(Nc3ccccc3-c3nc4ccccc4n31)C(=O)N2 (stereo not drawn)	23.3334
CCOc1cc(CNC(C)C(O)c2ccccc2)cc(Cl)c1OCC (stereo not drawn)	17.857
CCOc1c(Cl)cc(CNCC(O)c2ccccc2)cc1OC (stereo not drawn)	20.5848
OC(CNCC1CCCO1)Cn1c2ccc(Cl)cc2c2cc(Cl)ccc21 (stereo not drawn)	10.6906
COc1ccc2nc(C)cc(Nc3ccccc3O)c2c1	10.6942
CCn1nc(-c2ccc(C(=O)OC)cc2)nc2c(=O)n(C)c(=O)nc1-2	19.8788
Cc1cc(NC(=O)c2cccc(C(F)(F)F)c2)n(-c2nc(-c3ccc4c(c3)OCO4)cs2)n1	1.3202
CC1(c2ccccc2)Nc2ccccc2-c2nc3ccccc3n21 (stereo not drawn)	8.0798
COc1cccc(C2(C)Nc3ccccc3-c3nc4ccccc4n32)c1 (stereo not drawn)	2.1776
CC(C)CNC(=O)c1c(N)n(CCc2ccccc2F)c2nc3ccccc3nc12	-1.2922
O=C(Nc1ccccc1O)c1ccc(Oc2cccc(C(=O)Nc3ccccc3O)c2)cc1	23.386
O=C(Nc1ccc(Br)cc1)Nc1cccc(Cl)c1	8.8754
Oc1ccccc1CN1CCC2(CCCN(Cc3ccccc3F)C2)C1 (stereo not drawn)	46.3042
COc1cccc(O)c1CN1CCC2(CCCN(Cc3ccc(F)cc3)C2)C1 (stereo not drawn)	38.0312
COc1cccc(Nc2nc(NCCO)c3ccccc3n2)c1.Cl	21.665
Cc1ccc(-c2cc(C(=O)Nc3ccc(S(=O)(=O)N4CCCCC4)cc3)[nH]n2)c(O)c1	28.7504
COc1ccc(C(=O)Nc2ccc3nc(N4CCCCC4)cc(C)c3c2)cc1OC	11.0486
COCCNCC(O)Cn1c2ccc(Cl)cc2c2cc(Cl)ccc21 (stereo not drawn)	45.598
COc1ccc(N2CCN(C(CNC(=O)C3CCCCC3)c3ccc4c(c3)OCO4)CC2)cc1 (stereo not drawn)	22.7332
COc1ccc2nc(C)cc(Nc3ccc(Cl)cc3)c2c1	15.7236
FC(F)(F)c1ccc(Nc2nnnc3ccccc23)cc1	21.2738
O=C(NC1CCN(Cc2ccccc2)CC1)c1cc(-c2ccncc2)nc2ccc(Cl)cc12	12.9682
CCC(O)c1ccc(Br)cc1NC(=O)c1cccc(Cl)c1 (stereo not drawn)	24.26
COc1cc2cc(C(=O)Nc3ccccc3)c(N)nc2cc1OC	2.432
COc1cccc(NC(=O)Cn2c(C)c(C#N)c3ccccc32)c1	15.89
Cn1c(=O)c2cc(C(=O)NCCCN3CCCCCC3)sc2c2ccccc21	15.852

Structure (SMILES)	Growth Inhibition [%]
Cc1[nH]c(-c2ccc(F)cc2)cc1C(=O)NC1CCN(Cc2ccccc2)CC1	9.4322
COc1ccc(CCN2CCC(CN(C)Cc3cnn(-c4ccccc4)c3)CC2)cc1	34.868
O=C(O)C(=O)O.Oc1ccccc1CN1CCN(C(c2ccccc2)c2ccccc2)CC1	27.3522
O=C(NC1CCCC1)c1ccc(N2CCC(NCc3cccc(C(F)(F)F)c3)CC2)cc1	6.6358
CCOc1cc(Br)c(C(C)NC(=O)c2cccc(OC)c2)cc1OCC (stereo not drawn)	15.2596
CC(C)=CCN1CCC(C(=O)Nc2ccc(-c3nc4ccccc4[nH]3)cc2)CC1	16.6684
CCOc1cc(Cl)c(C(C)NC(=O)c2cccc(OC)c2)cc1OCC (stereo not drawn)	18.9364
FC(F)(F)c1cccc(Nc2nc(-c3ccccc3)nc3ncccc23)c1	9.5538
CCN1CCN(c2cc(C)c3cc(NC(=O)c4ccc(OC)c(OC)c4)ccc3n2)CC1	12.8102
CC(=O)Nc1nnc(SCc2c(C)cc(C(C)(C)C)cc2C)s1	-6.288
Cc1ccc(Cl)cc1N1CCN(CCCNC(=O)C2CCN(c3nc4ccccc4[nH]3)CC2)CC1	21.502
COc1ccc(CNC2CCN(c3ccc(NC(=O)c4cccc(Cl)c4)cc3)CC2)cc1OC	12.3618
O=C(Nc1ccc(CN2CCOCC2)cc1)c1ccc(-c2cc(Cl)ccc2Cl)o1	12.3128
Cc1ccc(CSCc2ccc(C(=O)NC3CC3)o2)cc1	9.7118
CC(NCc1ccccc1)c1cc(Cl)ccc1O (stereo not drawn)	40.6308
CN1CCN(c2c3c(c(C#N)c4nc5ccccc5n24)CCC3)CC1	7.7684
Cc1cc(Nc2cccc(F)c2)nc(NCc2ccccc2)n1	7.8192
CCOc1ccc(C2N(C)c3ccccc3N2C)cc1	9.8332
COCCn1c(C)nc2ccccc2c1=O	4.3894
O=C(Nc1cccc(-c2nc3ccccc3[nH]2)c1)c1cccc(NC(=O)c2ccco2)c1	6.1984
COc1ccc(C(=O)Nc2ccc(Cl)cc2C(=O)Nc2ccncc2)cc1	8.2224
O=C(NC1CCN(Cc2ccccc2)CC1)c1cc(-c2cccnc2)nc2ccc(Cl)cc12	12.1742
O=C(Nc1ccc(CN2CCOCC2)cc1)c1ccc(-c2ccc(Br)cc2)o1	17.4274
CCN(Cc1ccccc1)C1CCN(Cc2cc(Br)ccc2O)CC1.O=C(O)C(=O)O	47.2545
CC(=O)NCCc1nc2ccccc2n1Cc1ccc(C(C)C)cc1	10.8344
COc1nc(Nc2ccc(C(C)C)cc2)nc(OC)n1	1.041

Structure (SMILES)	Growth Inhibition [%]
CCN(CC)CCNc1ncnc2c1[nH]c1ccc(Br)cc12	8.817
CCOc1cccc(C(=O)Nc2ccc(-c3nc4ccccc4[nH]3)cc2)c1	7.5178
CN(C)c1ccc(-c2nc3cc(N)ccc3[nH]2)cc1	18.3914
O=C(CSc1ccc2nnc(-c3cccc(F)c3)n2n1)Nc1ccc2c(c1)OCO2	8.1908
Cc1c(C)n(Cc2ccc(F)cc2)c2ccc(C(=O)NCc3ccco3)cc12	19.2814
CCN(CC)c1ccc(NC(=O)c2cccs2)cc1	3.9542
CCCC(c1nnnn1C1CCCCC1)N1CCN(C(=O)c2ccco2)CC1.Cl (stereo not drawn)	10.3688
COc1ccc(-c2nonc2NC(=O)c2cccc(Cl)c2)cc1OC	6.9258
Cc1cc(NC(=O)c2ccc(-c3ccccc3)cc2)no1	4.97
CC(C)(C)C(=O)Nc1ccc(C(=O)Nc2cccc(-c3nc4ccccc4[nH]3)c2)cc1	13.3516
COc1ccc(-c2nonc2NC(=O)c2cccc(C)c2)cc1OC	3.7758
COc1cccc(-c2nn(C)c3sc(C(=O)NCCN4CCN(c5ccccc5F)CC4)cc23)c1	20.4084
O=C(Nc1ccc(N2CCN(Cc3ccccc3)CC2)cc1)c1cccs1.O=C(O)C(F)(F)F	-8.6144
Cc1ccc(CN2CCC(C(=O)Nc3ccc(-c4cc5ccccc5[nH]4)cc3)CC2)o1	25.7326
O=C(Nc1ccc(N2CCCCC2)c(Cl)c1)c1ccc(Br)o1	-4.8588
O=C(Nc1ccsc1C(=O)NC1CCCCC1)c1ccc(F)cc1	7.047
CCOc1cc2c(cc1OCC)C(c1cc(C)c(O)c(C)c1)NCC2.Cl (stereo not drawn)	25.854
O=C1CC(O)(C(F)(F)C(F)(F)F)Oc2ccccc21 (stereo not drawn)	1.4958
COc1cc(SC)ccc1C(=O)N1CCCC(C)C1 (stereo not drawn)	14.445
O=C(Nc1cccc(C(F)(F)F)c1)c1cc(Cl)ccc1O	14.365
CC(C)(C)c1ccc(C(=O)Nc2nc3ccccc3s2)cc1	9.3876
CC(C)c1ccc(CNCC(O)c2ccccc2)cc1.Cl (stereo not drawn)	37.0308
CC1CC(C)CN(C(=O)c2ccc(Cl)cc2Cl)C1 (stereo not drawn)	-2.8594
COc1ccccc1CNC(=O)C1c2ccccc2C(=O)N(CC(C)C)C1c1cccs1 (stereo not drawn)	12.474
OC(CNC1CCCC1)Cn1c2ccccc2c2ccccc21 (stereo not drawn)	39.5038
COc1ccc(C2N(C)c3ccccc3N2C)cc1	3.9982

Structure (SMILES)	Growth Inhibition [%]
CCN(CC)c1cc(C)c2cc(NC(=O)c3cccc(OC)c3)ccc2n1	11.335
Cc1ccc(NC(=O)Nc2cccc(Cl)c2)cc1F	3.3088
O=C(Nc1ccc(F)c(Cl)c1)Nc1ccc(Cl)c(Cl)c1	4.6714
CCOc1ccc(-c2nc(NC(=O)c3cccc(S(C)(=O)=O)c3)sc2C)cc1	10.5858
O=c1nc(C=Cc2ccc(Cl)cc2)oc2ccccc12	11.0552
O=C(NCc1ccco1)C1CCN(S(=O)(=O)c2ccc(Br)cc2)CC1	6.982
Clc1ccc2[nH]c3c(NCCCN4CCOCC4)ncnc3c2c1	9.617
COc1ccc(Nc2nc(NCc3ccccc3)c3ccccc3n2)cc1	17.5424
COc1cc2c(cc1OC)C1=NNC(=O)C1=NC(C)(C)C2	35.8316
COc1ccccc1N1CCN(C(CNS(=O)(=O)c2ccc(Cl)cc2)c2cccnc2)CC1 (stereo not drawn)	14.3398
Oc1c2c(nc3cc(-c4ccccc4)nn13)CCCC2	5.0802
CCCc1c(C)nc2ccccc2c1O	34.5652
CCCCc1c(C)nc2c(OC)cccc2c1O	10.7044
CCOc1c(Cl)cc(CNC(C)C(O)c2ccccc2)cc1OC (stereo not drawn)	22.4902
CCOC(=O)C1CCN(C(=O)CN2C(=O)c3ccccc3C2c2c[nH]c3ccccc23)CC1 (stereo not drawn)	48.711
CCOc1ccc(CCNC(=O)c2cccs2)cc1OCC	6.4232
CCCN(CCC)CCCNC(=O)c1cc2c(-c3ccc(OC)c(OC)c3)nn(C)c2s1	9.751
Cc1cc(N2CCN(C3CCCC3)CC2)n2c(nc3ccccc32)c1C#N	0.943
CN1c2ccccc2N(C)C1c1ccc2c(c1)OCO2	17.3464
CCCCOc1ccc(C(=O)Nc2cc(C)on2)cc1	-2.1422
O=C(NCC1Cc2cccc(-c3ccncc3)c2O1)c1csc2c1CCCC2 (stereo not drawn)	15.175
CCc1ccc(Nc2cc(C)nc3nc(C)nn23)cc1	-2.3802
Br.CCN(CC)S(=O)(=O)c1ccc(-c2csc(Nc3ccc(C)c(C)c3)n2)cc1	9.3564
C=C(C)CCC(C)N1CCC(N2CCC(C(=O)NCCc3ccccc3)CC2)CC1 (stereo not drawn)	9.4772
C=CCc1c(C)nc2ccccc2c1O	8.3394
